Biological target: T1, oestrogen receptor (ER) (Homo sapiens, UniProt P03372)
T1 construct: These MVLN cells express, along with the functional oestrogen receptor (ER), a reporter construct; endogenous in cells; host or cells: MVLN cells (MCF7 derivative carrying a luciferase reporter construct)
T1 sequence (P03372 1-595): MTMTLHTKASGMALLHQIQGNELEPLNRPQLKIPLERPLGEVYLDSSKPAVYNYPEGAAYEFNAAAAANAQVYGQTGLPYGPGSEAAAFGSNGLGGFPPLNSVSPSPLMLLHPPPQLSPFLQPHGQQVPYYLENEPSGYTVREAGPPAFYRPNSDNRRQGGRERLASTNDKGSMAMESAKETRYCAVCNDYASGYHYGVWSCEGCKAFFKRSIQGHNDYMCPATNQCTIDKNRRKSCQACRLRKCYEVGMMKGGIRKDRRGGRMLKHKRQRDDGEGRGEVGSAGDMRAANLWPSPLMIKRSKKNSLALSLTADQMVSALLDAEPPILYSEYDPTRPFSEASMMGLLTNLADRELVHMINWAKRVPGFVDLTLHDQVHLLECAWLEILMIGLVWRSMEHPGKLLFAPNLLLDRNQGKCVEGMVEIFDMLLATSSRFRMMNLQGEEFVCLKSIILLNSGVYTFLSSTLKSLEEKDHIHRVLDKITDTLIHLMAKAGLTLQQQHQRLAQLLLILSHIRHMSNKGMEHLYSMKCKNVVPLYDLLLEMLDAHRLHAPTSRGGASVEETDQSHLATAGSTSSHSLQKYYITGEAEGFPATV
Test: Anti-oestrogenic action in MVLN cells (inhibition of estradiol-induced luciferase)
Format: cell-based
Conditions: inhibition of estradiol-induced luciferase signal, value of Ex. 44 is a mean value, read-out: Antioestrogenic action in vitro: MVLN transactivation antagonism IC50
Summary of the method: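 Inhibition of estradiol-driven luciferase expression was measured with compounds co-applied alongside oestrogen. Reporter system: MCF7-derived MVLN cells expressing endogenous functional ER and an ER-responsive luciferase construct.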

## CN(CCCCCCC1=C(c2cc(F)cc(F)c2)CCCc2cc(O)ccc21)CCCCS(=O)(=O)CCCC(F)(F)F [Example 44, 8-(3,5-Difluorophenyl)-9-[6-(methyl{4-[(4,4,4-trifluorobutyl)sulphonyl]butyl}amino)hexyl]-6,7-dihydro-5H-benzo[7]annulen-3-ol]
  IC50: 5.6 nM

Reference: US20130252890A1, “6,7-DIHYDRO-5H-BENZO[7]ANNULENE DERIVATIVES, PROCESS FOR PREPARATION THEREOF, PHARMACEUTICAL PREPARATIONS COMPRISING THEM, AND THE USE THEREOF FOR PRODUCTION OF MEDICAMENTS” (BAYER INTELLECTUAL PROPERTY GMBH, priority 2010, published 2013)
